# Test results from patent publication US8119563B2, “N-substituted azacycles” (FMC Corporation, priority 2003, dated 2012).
# Test system: tobacco budworm (Heliothis virescens [Fabricius])
# Test: surface-treated diet test, insecticidal activity against tobacco budworm
# Assay type: in vivo
# Set-up: mortality: concentration or dose not given beside the values
# Details: 0.25 millimoles of candidate insecticide on the surface of the diet, second instar larvae, five-day exposure
# Procedure, shortened: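 Wheat germ artificial diet surface-treated with compound from 50 mM DMSO stock diluted 1:7 in 1:1 water/acetone (0.25 millimolar on diet), or lower-rate dilutions; DMSO-only controls. One second-instar larva per well, 25° C, 60% RH, 14 h light, five days; percent weight inhibition versus untreated and percent mortality scored.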
# [1] = compared to total number of insects infested
# [2] = inhibition of insect weight relative to untreated controls
Compound,Percent Mortality [1],Percent Growth Inhibition [2],"mortality (Heliothis virescens, 120 h, compared to total number of insects infested, read-out: Percent Mortality)","pest or weed control at 0.25 mmol/well (Heliothis virescens, 120 h, inhibition of insect weight relative to untreated controls, read-out: Percent Growth Inhibition)"
OC1(C(c2ccc(C(F)(F)F)cc2)c2ccc(C(F)(F)F)cc2)CCN(Cc2ccc(OCc3ccccc3)cc2)CC1 [Compound 316],67%,100%,,
CCOC(=O)CNC(=O)Oc1ccc(CN2CCC(O)(C(c3ccc(OC(F)(F)F)cc3)c3ccc(OC(F)(F)F)cc3)CC2)cc1 [Compound 317],100%,100%,,
O=C(Nc1ccc(CN2CCC(O)(C(c3ccc(C(F)(F)F)cc3)c3ccc(C(F)(F)F)cc3)CC2)cc1)OCC1CC1 [Compound 319],100%,100%,,
O=C(NC1CCCC1)Oc1ccc(CN2CCC(O)(C(c3ccc(OC(F)(F)F)cc3)c3ccc(OC(F)(F)F)cc3)CC2)cc1 [Compound 320],100%,100%,,
Cc1ccnc(Oc2ccc(CN3CCC(O)(C(c4ccc(OC(F)(F)F)cc4)c4ccc(OC(F)(F)F)cc4)CC3)cc2)c1 [Compound 321],100%,100%,,
OC1(C(c2ccc(OC(F)(F)F)cc2)c2ccc(OC(F)(F)F)cc2)CCN(Cc2ccc(Oc3ncccc3Cl)cc2)CC1 [Compound 322],100%,100%,,
O=C(NCc1ccc(Cl)c(Cl)c1)Oc1ccc(CN2CCC(O)(C(c3ccc(OC(F)(F)F)cc3)c3ccc(OC(F)(F)F)cc3)CC2)cc1 [Compound 323],33%,100%,,
O=C(Nc1ccc(Cl)cc1)Oc1ccc(CN2CCC(O)(C(c3ccc(OC(F)(F)F)cc3)c3ccc(OC(F)(F)F)cc3)CC2)cc1 [Compound 324],33%,100%,,
CCCCNC(=O)Oc1ccc(CN2CCC(O)(C(c3ccc(OC(F)(F)F)cc3)c3ccc(OC(F)(F)F)cc3)CC2)cc1 [Compound 326],100%,100%,,
O=C(Nc1ccc(CN2CCC(O)(C(c3ccc(OC(F)(F)F)cc3)c3ccc(OC(F)(F)F)cc3)CC2)cc1)OCC1CC1 [Compound 327],100%,100%,,
O=C(NC1CCCCC1)Oc1ccc(CN2CCC(O)(C(c3ccc(OC(F)(F)F)cc3)c3ccc(OC(F)(F)F)cc3)CC2)cc1 [Compound 329],67%,100%,,
CC(C)OC(=O)c1ccc(CN2CCC(O)(C(c3ccc(C(F)(F)F)cc3)c3ccc(C(F)(F)F)cc3)CC2)cc1 [Compound 330],100%,100%,,
CC(C)(C)c1ccc(C(c2ccc(OC(F)(F)F)cc2)C2(O)CC[N+]([O-])(Cc3ccc(Oc4ccccn4)cc3)CC2)cc1 (stereo not shown) [Compound 335],100%,100%,,
COCCOCCON=Cc1ccc(C[N+]2([O-])CCC(O)(C(c3ccc(OC(F)(F)F)cc3)c3ccc(OC(F)(F)F)cc3)CC2)cc1 (stereo not shown) [Compound 336],100%,100%,,
CCOCON=Cc1ccc(C[N+]2([O-])CCC(O)(C(c3ccc(OC(F)(F)F)cc3)c3ccc(OC(F)(F)F)cc3)CC2)cc1 (stereo not shown) [Compound 337],100%,100%,,
COc1ccc(C(c2ccc(OC(F)(F)F)cc2)C2(O)CC[N+]([O-])(Cc3ccc(Oc4ccccn4)cc3)CC2)cc1 (stereo not shown) [Compound 338],100%,100%,,
[O-][N+]1(Cc2ccc(Oc3ccccn3)cc2)CCC(O)(C(c2ccc(Br)cc2)c2ccc(OC(F)(F)F)cc2)CC1 (stereo not shown) [Compound 339],100%,100%,,
Cc1ccc(C(c2ccc(OC(F)(F)F)cc2)C2(O)CC[N+]([O-])(Cc3ccc(Oc4ccccn4)cc3)CC2)cc1 (stereo not shown) [Compound 340],100%,100%,,
[O-][N+]1(Cc2ccc(C3OCCO3)cc2)CCC(O)(C(c2ccc(OC(F)(F)F)cc2)c2ccc(OC(F)(F)F)cc2)CC1 (stereo not shown) [Compound 341],100%,100%,,
[O-][N+]1(Cc2ccc(C3OCCO3)cc2)CCC(O)(C(c2ccc(C(F)(F)F)cc2)c2ccc(C(F)(F)F)cc2)CC1 (stereo not shown) [Compound 342],100%,100%,,
[O-][N+]1(Cc2ccc(Oc3ccccn3)cc2)CCC(O)(C(c2ccc(OC(F)(F)F)cc2)c2ccc(C(F)(F)F)cc2)CC1 (stereo not shown) [Compound 343],100%,100%,,
COCCON=Cc1ccc(C[N+]2([O-])CCC(O)(C(c3ccc(OC(F)(F)F)cc3)c3ccc(OC(F)(F)F)cc3)CC2)cc1 (stereo not shown) [Compound 344],100%,100%,,

Compound,Percent Mortality [1],Percent Growth Inhibition [2],"mortality (Heliothis virescens, 120 h, compared to total number of insects infested, read-out: Percent Mortality)","pest or weed control at 0.25 mmol/well (Heliothis virescens, 120 h, inhibition of insect weight relative to untreated controls, read-out: Percent Growth Inhibition)"
[O-][N+]1(Cc2ccc(Oc3ccccn3)cc2)CCC(O)(C(c2ccc(Cl)cc2)c2ccc(Cl)cc2)CC1 (stereo not shown) [Compound 345],100%,100%,,
[O-][N+]1(Cc2ccc(Oc3ccccn3)cc2)CCC(O)(C(c2ccc(F)cc2)c2ccc(OC(F)(F)F)cc2)CC1 (stereo not shown) [Compound 346],100%,100%,,
[O-][N+]1(Cc2ccc(Oc3ccccn3)cc2)CCC(O)(C(c2ccc(OC(F)F)cc2)c2ccc(OC(F)(F)F)cc2)CC1 (stereo not shown) [Compound 347],100%,100%,,
Cc1cccnc1Oc1ccc(C[N+]2([O-])CCC(O)(C(c3ccc(OC(F)(F)F)cc3)c3ccc(OC(F)(F)F)cc3)CC2)cc1 (stereo not shown) [Compound 349],100%,100%,,
Cc1ccc(Oc2ccc(C[N+]3([O-])CCC(O)(C(c4ccc(OC(F)(F)F)cc4)c4ccc(OC(F)(F)F)cc4)CC3)cc2)nc1 (stereo not shown) [Compound 350],100%,100%,,
CCOC(OCC)c1ccc(C[N+]2([O-])CCC(O)(C(c3ccc(OC(F)(F)F)cc3)c3ccc(OC(F)(F)F)cc3)CC2)cc1 (stereo not shown) [Compound 351],100%,100%,,
N#CCON=Cc1ccc(C[N+]2([O-])CCC(O)(C(c3ccc(OC(F)(F)F)cc3)c3ccc(OC(F)(F)F)cc3)CC2)cc1 (stereo not shown) [Compound 353],100%,100%,,
Cc1cccc(Oc2ccc(C[N+]3([O-])CCC(O)(C(c4ccc(OC(F)(F)F)cc4)c4ccc(OC(F)(F)F)cc4)CC3)cc2)n1 (stereo not shown) [Compound 354],100%,100%,,
CON=C(Cl)c1ccc(C[N+]2([O-])CCC(O)(C(c3ccc(OC(F)(F)F)cc3)c3ccc(OC(F)(F)F)cc3)CC2)cc1 (stereo not shown) [Compound 355],100%,100%,,
CCOC(=O)COc1ccc(C[N+]2([O-])CCC(O)(C(c3ccc(OC(F)(F)F)cc3)c3ccc(OC(F)(F)F)cc3)CC2)cc1 (stereo not shown) [Compound 357],0%,100%,,
CC1(C)COC(c2ccc(C[N+]3([O-])CCC(O)(C(c4ccc(OC(F)(F)F)cc4)c4ccc(OC(F)(F)F)cc4)CC3)cc2)OC1 (stereo not shown) [Compound 358],100%,100%,,
N#Cc1cccnc1Oc1ccc(C[N+]2([O-])CCC(O)(C(c3ccc(OC(F)(F)F)cc3)c3ccc(OC(F)(F)F)cc3)CC2)cc1 (stereo not shown) [Compound 359],100%,100%,,
[O-][N+]1(Cc2ccc(C3OCCCO3)cc2)CCC(O)(C(c2ccc(OC(F)(F)F)cc2)c2ccc(OC(F)(F)F)cc2)CC1 (stereo not shown) [Compound 370],100%,100%,,
[O-][N+]1(Cc2ccc(OCC=C(Cl)Cl)cc2)CCC(O)(C(c2ccc(OC(F)(F)F)cc2)c2ccc(OC(F)(F)F)cc2)CC1 (stereo not shown) [Compound 371],100%,100%,,
[O-][N+]1(Cc2ccc(Oc3ccccc3Cl)cc2)CCC(O)(C(c2ccc(OC(F)(F)F)cc2)c2ccc(OC(F)(F)F)cc2)CC1 (stereo not shown) [Compound 375],100%,100%,,
[O-][N+]1(Cc2ccc(C=NOCC(F)(F)F)cc2)CCC(O)(C(c2ccc(OC(F)(F)F)cc2)c2ccc(OC(F)(F)F)cc2)CC1 (stereo not shown) [Compound 378],100%,100%,,
CC(C)Oc1ccc(C[N+]2([O-])CCC(O)(C(c3ccc(C(F)(F)F)cc3)c3ccc(C(F)(F)F)cc3)CC2)cc1 (stereo not shown) [Compound 380],100%,100%,,
[O-][N+]1(Cc2ccc(OCc3ccccc3)cc2)CCC(O)(C(c2ccc(OC(F)(F)F)cc2)c2ccc(OC(F)(F)F)cc2)CC1 (stereo not shown) [Compound 381],100%,100%,,
[O-][N+]1(Cc2ccc(OCC3CC3)cc2)CCC(O)(C(c2ccc(C(F)(F)F)cc2)c2ccc(C(F)(F)F)cc2)CC1 (stereo not shown) [Compound 383],100%,100%,,
[O-][N+]1(Cc2ccc(Oc3ccc(Cl)nn3)cc2)CCC(O)(C(c2ccc(C(F)(F)F)cc2)c2ccc(C(F)(F)F)cc2)CC1 (stereo not shown) [Compound 384],100%,100%,,
"COCCOc1ccc(C[N+]2([O-])CCC(O)(C(c3ccc(OC(F)(F)F)cc3)c3ccc(OC(F)(F)F)cc3)CC2)cc1 (stereo not shown) [Compound 385, 4-{bis[4-(trifluoromethoxy)phenyl]methyl}-4-hydroxy-1-{[4-(2-methoxyethoxy)phenyl]methyl}piperidin-1-oxide]",,,100%,100%
CCCOC(=O)Nc1ccc(C[N+]2([O-])CCC(O)(C(c3ccc(OC(F)(F)F)cc3)c3ccc(OC(F)(F)F)cc3)CC2)cc1 (stereo not shown) [Compound 387],100%,100%,,
